18 compounds from US20260365653A1, “IRREVERSIBLE MUTEGFR INHIBITORS” (Bayer Aktiengesellschaft, priority 2022, published 2026) can be followed below.

Each structure is given as a SMILES string.

Test [1] addresses T1, mutEGFR (D770_N771insSVD) (Homo sapiens, UniProt P00533, DUP768-770).
T1 construct: GST-EGFR #3 (SVD between D770 and N771); made in house; host or cells: Sf9 insect cells (baculovirus)
Briefly: Exon20-Mutant-EGFR (D770_N771insSVD) kinase assay (TR-FRET). The format is biochemical. (TR-FRET usually uses a lanthanide donor and a delayed reading to cut background.)

For test [2], the target named is T2, mutEGFR (D770_N771insNPG, T790) (Homo sapiens, UniProt P00533, INS770NPG/T790M).
T2 construct: exact insNPG construct not described; in-house EGFR proteins were N-terminal GST fusions from baculovirus/insect cells (borders R669-A1210 given only for WT, insSVD, insASV)
T2 sequence (P00533 with tags, fused parts or gaps INS770NPG/T790M limits assumed): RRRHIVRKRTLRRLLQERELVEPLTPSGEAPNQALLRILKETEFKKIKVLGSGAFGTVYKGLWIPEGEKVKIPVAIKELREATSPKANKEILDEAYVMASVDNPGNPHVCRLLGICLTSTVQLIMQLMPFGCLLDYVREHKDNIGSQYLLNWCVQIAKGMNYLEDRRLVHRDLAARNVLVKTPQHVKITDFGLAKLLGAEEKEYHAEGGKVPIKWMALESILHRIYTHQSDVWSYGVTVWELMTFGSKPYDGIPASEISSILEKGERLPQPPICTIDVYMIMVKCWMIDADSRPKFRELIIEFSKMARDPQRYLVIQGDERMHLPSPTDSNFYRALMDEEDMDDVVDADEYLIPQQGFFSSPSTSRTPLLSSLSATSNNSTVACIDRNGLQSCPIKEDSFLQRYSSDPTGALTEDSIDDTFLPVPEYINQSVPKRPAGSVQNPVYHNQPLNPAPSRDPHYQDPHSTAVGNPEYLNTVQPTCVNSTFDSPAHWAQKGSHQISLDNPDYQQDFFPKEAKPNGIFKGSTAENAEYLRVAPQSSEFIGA
Briefly: mutEGFR (D770_N771insNPG, T790) kinase assay. The format is biochemical. An excerpt:
The different EGFR proteins used in the biochemical kinase activity inhibition assays were generated inhouse by expression in insect cells using Baculo Virus system and subsequent purification as described in the following paragraphs.
The cDNAs encoding the various protein sequences from human EGFR human (P00533) were optimized for expression in eukaryotic cells and synthesized by the GeneArt Technology at Life Technologies.

The test system of a further test is BA/F3 (insSVD) cells. The test can be described thus: Ba/F3-EGFR-insSVD cell survival assay (Cell Titer-Glo). The format is cell-based. The gist of the method:
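Ba/F3 cells stably expressing retroviral EGFR-insSVD or insSVD T790M, grown without IL-3 on 10 ng/ml EGF, 4000 cells/well. Compound pinned in, 48 h at 37° C. Viability by CellTiter-Glo luminescence.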
(Cellular ATP, detected with luciferase, serves as a proxy for viable cell number.)

The mark [3] stands for this setting: mutEGFR (D770_N771insSVD) kinase assay IC50, Table 2a, D770_N771insSVD, 2 mM ATP.
[4] abbreviates: Mus musculus, BaF3, 48 h, Table 3a, cell survival, Cell Titer-Glo, with 10 ng/ml EGF, without IL-3.
Setting [5] is: mutEGFR (D770_N771insSVD) kinase assay IC50, Table 2b (from US Priority Patent Application), mutEGFR D770_N771insSVD.

T1 sequence (P00533 with tags, fused parts or gaps DUP768-770): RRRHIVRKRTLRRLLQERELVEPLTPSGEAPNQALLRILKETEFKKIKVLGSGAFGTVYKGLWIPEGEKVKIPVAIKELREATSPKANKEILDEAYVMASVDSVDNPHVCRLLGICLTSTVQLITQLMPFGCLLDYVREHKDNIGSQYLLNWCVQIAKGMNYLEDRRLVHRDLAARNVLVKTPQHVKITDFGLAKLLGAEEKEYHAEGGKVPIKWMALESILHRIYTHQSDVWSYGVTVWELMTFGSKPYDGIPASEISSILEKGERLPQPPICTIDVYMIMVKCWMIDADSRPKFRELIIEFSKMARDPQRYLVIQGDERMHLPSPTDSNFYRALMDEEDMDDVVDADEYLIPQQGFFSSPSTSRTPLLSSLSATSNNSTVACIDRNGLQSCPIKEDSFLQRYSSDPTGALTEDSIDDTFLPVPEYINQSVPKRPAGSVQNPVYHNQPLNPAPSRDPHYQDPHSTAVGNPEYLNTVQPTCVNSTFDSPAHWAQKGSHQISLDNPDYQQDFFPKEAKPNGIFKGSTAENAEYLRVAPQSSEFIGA

What is called IC50 is the concentration at which inhibition is half-maximal. A higher IC50 goes with weaker potency. Regarding `C=CC(=O)N1CCn2nc(-c3ccc(Cl)cc3F)c(-c3ccnc(NC)c3)c2C1` [Example 53, 1-[2-(4-chloro-2-fluorophenyl)-3-[2-(methylamino)pyridin-4-yl]-6,7-dihydropyrazolo[1,5-a]pyrazin-5(4H)-yl]prop-2-en-1-one], the IC50 stood at 0.997 nM in test [1] (setting [3]); 7.05 nM in test [2] (Table 2a, D770_N771insNPG); 44.2 nM in the test on BA/F3 (insSVD) cells (setting [4]).
In the case of `CN(C)C/C=C/C(=O)N1CCn2nc(-c3cccc(C#N)c3)c(-c3ccncc3)c2C1` [Example 159, 3-{5-[(2E)-4-(dimethylamino)but-2-enoyl]-3-(pyridin-4-yl)-4,5,6,7-tetrahydropyrazolo[1,5-a]pyrazin-2-yl}benzonitrile], the 50% inhibitory concentration (IC50) in test [1] (setting [3]) was 83.1 nM; in test [2] (Table 2a, D770_N771insNPG), 38.7 nM; in the test on BA/F3 (insSVD) cells (setting [4]), 764 nM.
For `C=CC(=O)N1Cc2c(-c3ccncc3)c(-c3cccc(C#N)c3)nn2C[C@H]1C` [Example 126, 3-[(6R)-6-methyl-5-(prop-2-enoyl)-3-(pyridin-4-yl)-4,5,6,7-tetrahydropyrazolo[1,5-a]pyrazin-2-yl]benzonitrile], in that order: 12.4 nM, 4.52 nM and 86.5 nM.
With `C=CC(=O)N1C(C)c2c(-c3ccncc3)c(-c3ccc(Cl)cc3F)nn2C[C@@H]1C` (single isomer, unassigned; isomer 1) [Example 292], the half-maximal inhibitory concentration (IC50) worked out at 0.129 nM in test [1] (setting [3]); 0.34 nM in test [2] (Table 2a, D770_N771insNPG); 4.08 nM in the test with BA/F3 (insSVD) cells (Table 3a, cell survival, Cell Titer-Glo, with 10 ng/ml EGF, without IL-3, 48 h).
For `C=CC(=O)N1Cc2c(-c3ccncc3)c(-c3ccc(C(F)(F)F)cc3F)nn2CC1C` (racemic) [Example 230, 1-[(6RS)-2-[2-fluoro-4-(trifluoromethyl)phenyl]-6-methyl-3-(pyridin-4-yl)-6,7-dihydropyrazolo[1,5-a]pyrazin-5(4H)-yl]prop-2-en-1-one], the IC50 in test [1] (setting [3]) was determined as 0.416 nM; in test [2] (Table 2a, D770_N771insNPG) it was 1.04 nM; in the test on BA/F3 (insSVD) cells (setting [4]) it was 15.6 nM.
Turning to `C=CC(=O)N1CCn2nc(-c3ccc(F)cc3)c(-c3ccnc(OC)c3)c2C1` [Example 11, 1-[2-(4-fluorophenyl)-3-(2-methoxypyridin-4-yl)-6,7-dihydropyrazolo[1,5-a]pyrazin-5(4H)-yl]prop-2-en-1-one], the 50% inhibitory concentration (IC50) in test [1] (setting [3]) amounted to 29.6 nM; in test [1] (setting [5]) it was 29.6 nM; in test [2] (Table 2a, D770_N771insNPG), 43.8 nM; in test [2] (Table 2b (from US Priority Patent Application), mutEGFR D770_N771insNPG), 43.8 nM; in the test with BA/F3 (insSVD) cells (setting [4]), 1560 nM; with BA/F3 (insSVD) cells (Mus musculus, BaF3, 48 h, Table 3b, Ba/F3 EGFR-insSVD) it was 1560 nM.
On to `CN(C)C/C=C/C(=O)N1Cc2c(-c3ccncc3)c(-c3ccc(Cl)cc3)nn2C(C)(C)C1` [Example 215, (2E)-1-[2-(4-chlorophenyl)-7,7-dimethyl-3-(pyridin-4-yl)-6,7-dihydropyrazolo[1,5-a]pyrazin-5(4H)-yl]-4-(dimethylamino)but-2-en-1-one], for which the IC50 in test [1] (setting [3]) amounted to 0.513 nM; in test [2] (Table 2a, D770_N771insNPG), 1.2 nM; in the test on BA/F3 (insSVD) cells (setting [4]), 41.7 nM.
For `COc1cccc(-c2nn3c(c2-c2ccncc2)CN(C(=O)/C=C/CN(C)C)CC3)c1` [Example 155, (2E)-4-(dimethylamino)-1-[2-(3-methoxyphenyl)-3-(pyridin-4-yl)-6,7-dihydropyrazolo[1,5-a]pyrazin-5(4H)-yl]but-2-en-1-one], in that order: 6.43 nM, 5.24 nM and 1050 nM.
As to `C=CC(=O)N1CCn2nc(-c3cccc(C)c3)c(-c3ccncc3)c2C1` [Example 139, 1-[2-(3-methylphenyl)-3-(pyridin-4-yl)-6,7-dihydropyrazolo[1,5-a]pyrazin-5(4H)-yl]prop-2-en-1-one], the half-inhibitory concentration (IC50) in test [1] (setting [3]) stood at 0.841 nM; in test [2] (Table 2a, D770_N771insNPG), 1.38 nM; in the test on BA/F3 (insSVD) cells (setting [4]) it was 25.9 nM.
The matching figures for `C=CC(=O)N1Cc2c(-c3ccncc3)c(-c3ccc(Cl)cc3F)nn2C[C@H]1C` [Example 271, 1-[(6R)-2-(4-chloro-2-fluorophenyl)-6-methyl-3-(pyridin-4-yl)-6,7-dihydropyrazolo[1,5-a]pyrazin-5(4H)-yl]prop-2-en-1-one]: 0.132 nM, 0.351 nM and 225 nM.
The matching figures for `Cc1c[nH]c2nccc(-c3c(-c4cccc(C#N)c4)nn4c3CN(C(=O)/C=C/CN(C)C)[C@@H](C)C4)c12` [Example 288, 3-[(6S)-5-[(2E)-4-(dimethylamino)but-2-enoyl]-6-methyl-3-(3-methyl-1H-pyrrolo[2,3-b]pyridin-4-yl)-4,5,6,7-tetrahydropyrazolo[1,5-a]pyrazin-2-yl]benzonitrile]: 344 nM, 53.8 nM and 181 nM.
The matching figures for `C=CC(=O)N1CCn2nc(-c3ccc(C)cc3O)c(-c3ccncc3)c2C1` [Example 113, 1-[2-(2-hydroxy-4-methylphenyl)-3-(pyridin-4-yl)-6,7-dihydropyrazolo[1,5-a]pyrazin-5(4H)-yl]prop-2-en-1-one]: 1.76 nM, 3.91 nM and 55.5 nM.
In the case of `C=CC(=O)N1CCn2nc(-c3ccc(OC(F)(F)F)cc3)c(-c3ccncc3)c2C1` [Example 129, 1-[3-(pyridin-4-yl)-2-[4-(trifluoromethoxy)phenyl]-6,7-dihydropyrazolo[1,5-a]pyrazin-5(4H)-yl]prop-2-en-1-one], the 50% inhibitory concentration (IC50) is 2.97 nM in test [1] (setting [3]); 16 nM in test [2] (Table 2a, D770_N771insNPG); 106 nM in the test on BA/F3 (insSVD) cells (setting [4]).
The matching figures for `C=CC(=O)N1CCn2nc(-c3ccc(Cl)cc3F)c(-c3ccnc4[nH]cc(C)c34)c2C1` [Example 49, 1-[2-(4-chloro-2-fluorophenyl)-3-(3-methyl-1H-pyrrolo[2,3-b]pyridin-4-yl)-6,7-dihydropyrazolo[1,5-a]pyrazin-5(4H)-yl]prop-2-en-1-one]: 112 nM, 121 nM and 71.7 nM.
As to `Cc1c[nH]c2nccc(-c3c(-c4ccc(C(F)(F)F)cc4)nn4c3CN(C(=O)/C=C/CN(C)C)[C@H](C)C4)c12` [Example 266, (2E)-4-(dimethylamino)-1-[(6R)-6-methyl-3-(3-methyl-1H-pyrrolo[2,3-b]pyridin-4-yl)-2-[4-(trifluoromethyl)phenyl]-6,7-dihydropyrazolo[1,5-a]pyrazin-5(4H)-yl]but-2-en-1-one], the IC50 was determined as 462 nM in test [1] (setting [3]); 3580 nM in test [2] (Table 2a, D770_N771insNPG); 121 nM in the test on BA/F3 (insSVD) cells (setting [4]).
For `C=CC(=O)N1CCn2nc(-c3ccc4sccc4c3)c(-c3ccncc3)c2C1C` (racemic) [Example 242, 1-[(RS)-2-(1-benzothiophen-5-yl)-4-methyl-3-(pyridin-4-yl)-6,7-dihydropyrazolo[1,5-a]pyrazin-5(4H)-yl]prop-2-en-1-one], in that order: 0.445 nM, 0.839 nM and 48.2 nM.
The matching figures for `CN(C)C/C=C/C(=O)N1CCn2nc(-c3ccc(SC(F)(F)F)cc3)c(-c3ccncc3)c2C1` [Example 161, (2E)-4-(dimethylamino)-1-[3-(pyridin-4-yl)-2-{4-[(trifluoromethyl)sulfanyl]phenyl}-6,7-dihydropyrazolo[1,5-a]pyrazin-5(4H)-yl]but-2-en-1-one]: 92.9 nM, 629 nM and 1990 nM.
Turning to `C/C=C/C(=O)N1CCn2nc(-c3ccc(F)cc3)c(-c3ccncc3)c2C1` [Example 23, (2E)-1-[2-(4-fluorophenyl)-3-(pyridin-4-yl)-6,7-dihydropyrazolo[1,5-a]pyrazin-5(4H)-yl]but-2-en-1-one], the concentration for half-maximal inhibition (IC50) in test [1] (setting [3]) was determined as 208 nM; in test [1] (setting [5]), 208 nM; in test [2] (Table 2a, D770_N771insNPG) it was 804 nM; with BA/F3 (insSVD) cells (setting [4]), 3850 nM.
